Experimental data published in ChEMBL document CHEMBL1201862, “PubChem BioAssay data set” (2004).
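These data come from cells grown in 96-well plates and exposed to compound for 48 hours at five concentrations. GI50 marks 50% less growth.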 The source made the active and inactive calls. Cut-off read from the data, not from the text of the source: active = GI50 up to about 1.1 µM and inactive = higher.

Experiments:
Experiment in all cases: NCI anticancer screen, dose series, 48 h
Hs-578T = tested on: Hs-578T
KM12 = tested on: KM12
IGROV-1 = tested on: IGROV-1
A549 = tested on: A549
UACC-257 = tested on: UACC-257
SN12C = tested on: SN12C
SK-MEL-2 = tested on: SK-MEL-2
SF-539 = tested on: SF-539
PC-3 = tested on: PC-3
BT-549 = tested on: BT-549
SR = tested on: SR
HT-29 = tested on: HT-29
CCRF-CEM = tested on: CCRF-CEM
COLO 205 = tested on: COLO 205
SK-MEL-28 = tested on: SK-MEL-28
T47D = tested on: T47D
NCI-H460 = tested on: NCI-H460
MOLT-4 = tested on: MOLT-4
MDA-N = tested on: MDA-N
CAKI-1 = tested on: CAKI-1

**Q.** With `NC1=CN2c3ccccc3N(CC(=O)N3CCOCC3)C2C=C1` (stereo not given) as the compound, how does the GI50 (Hs-578T) read?
**A.** > 100 µM (inactive)

**Q.** And the GI50 (KM12)?
**A.** > 100 µM (inactive)

**Q.** What about the GI50 (IGROV-1) of the same compound?
**A.** > 100 µM (inactive)

**Q.** What about the GI50 (A549) of the same compound?
**A.** > 100 µM (inactive)

**Q.** What about the GI50 (UACC-257) of the same compound?
**A.** > 100 µM (inactive)

**Q.** What about the GI50 (SN12C) of the same compound?
**A.** > 100 µM (inactive)

**Q.** What about the GI50 (SK-MEL-2) of the same compound?
**A.** > 100 µM (inactive)

**Q.** What about the GI50 (SF-539) of the same compound?
**A.** > 100 µM (inactive)

**Q.** And the GI50 (PC-3)?
**A.** > 100 µM (inactive)

**Q.** What about the GI50 (BT-549) of the same compound?
**A.** > 100 µM (inactive)

**Q.** And the GI50 (SR)?
**A.** > 100 µM (inactive)

**Q.** And the GI50 (HT-29)?
**A.** > 100 µM (inactive)

**Q.** What about the GI50 (CCRF-CEM) of the same compound?
**A.** > 100 µM (inactive)

**Q.** And the GI50 (COLO 205)?
**A.** > 100 µM (inactive)

**Q.** And the GI50 (SK-MEL-28)?
**A.** > 100 µM (inactive)

**Q.** And the GI50 (T47D)?
**A.** > 100 µM (inactive)

**Q.** And the GI50 (NCI-H460)?
**A.** > 100 µM (inactive)

**Q.** What about the GI50 (MOLT-4) of the same compound?
**A.** > 100 µM (inactive)

**Q.** What about the GI50 (MDA-N) of the same compound?
**A.** > 100 µM (inactive)

**Q.** What about the GI50 (CAKI-1) of the same compound?
**A.** > 100 µM (inactive)

**Q.** For `COC1/C=C\C=C(/C)C(=O)NC2=CC(=O)C(NCCCl)=C(CC(C)CC(OC)C(O)C(C)/C=C(/C)C1OC(N)=O)C2=O` (stereo not given), which GI50 (Hs-578T) is on record?
**A.** 4.89 µM (inactive)

**Q.** What about the GI50 (KM12) of the same compound?
**A.** 0.125 µM (active)

**Q.** And the GI50 (IGROV-1)?
**A.** 0.499 µM (active)

**Q.** What about the GI50 (A549) of the same compound?
**A.** 0.53 µM (active)

**Q.** What about the GI50 (UACC-257) of the same compound?
**A.** 0.0363 µM (active)

**Q.** And the GI50 (SN12C)?
**A.** 0.069 µM (active)

**Q.** What about the GI50 (SK-MEL-2) of the same compound?
**A.** 0.147 µM (active)

**Q.** And the GI50 (SF-539)?
**A.** 0.127 µM (active)

**Q.** And the GI50 (PC-3)?
**A.** 0.656 µM (active)

**Q.** And the GI50 (BT-549)?
**A.** 1.25 µM (inactive)

**Q.** And the GI50 (SR)?
**A.** 0.0341 µM (active)

**Q.** What about the GI50 (HT-29) of the same compound?
**A.** 0.0158 µM (active)

**Q.** What about the GI50 (CCRF-CEM) of the same compound?
**A.** 0.0993 µM (active)

**Q.** And the GI50 (COLO 205)?
**A.** < 0.0126 µM (active)

**Q.** What about the GI50 (SK-MEL-28) of the same compound?
**A.** 0.0373 µM (active)

**Q.** And the GI50 (T47D)?
**A.** 2.36 µM (inactive)

**Q.** And the GI50 (NCI-H460)?
**A.** 0.0991 µM (active)

**Q.** What about the GI50 (MOLT-4) of the same compound?
**A.** 0.052 µM (active)

**Q.** And the GI50 (MDA-N)?
**A.** 0.332 µM (active)

**Q.** What about the GI50 (CAKI-1) of the same compound?
**A.** 0.33 µM (active)

**Q.** With `CSc1c(C(=O)Nc2ccc(C)cc2)c(N)n(N)c(=O)c1C#N` as the compound, how does the GI50 (Hs-578T) read?
**A.** > 100 µM (inactive)

**Q.** And the GI50 (KM12)?
**A.** > 100 µM (inactive)

**Q.** And the GI50 (IGROV-1)?
**A.** > 100 µM (inactive)

**Q.** What about the GI50 (A549) of the same compound?
**A.** > 100 µM (inactive)

**Q.** And the GI50 (UACC-257)?
**A.** > 100 µM (inactive)

**Q.** What about the GI50 (SN12C) of the same compound?
**A.** > 100 µM (inactive)

**Q.** What about the GI50 (SK-MEL-2) of the same compound?
**A.** > 100 µM (inactive)

**Q.** What about the GI50 (SF-539) of the same compound?
**A.** > 100 µM (inactive)

**Q.** And the GI50 (PC-3)?
**A.** > 100 µM (inactive)

**Q.** And the GI50 (BT-549)?
**A.** > 100 µM (inactive)

**Q.** And the GI50 (SR)?
**A.** > 100 µM (inactive)

**Q.** And the GI50 (HT-29)?
**A.** > 100 µM (inactive)

**Q.** And the GI50 (CCRF-CEM)?
**A.** > 100 µM (inactive)

**Q.** And the GI50 (COLO 205)?
**A.** > 100 µM (inactive)

**Q.** What about the GI50 (SK-MEL-28) of the same compound?
**A.** > 100 µM (inactive)

**Q.** What about the GI50 (T47D) of the same compound?
**A.** > 100 µM (inactive)

**Q.** What about the GI50 (NCI-H460) of the same compound?
**A.** > 100 µM (inactive)

**Q.** And the GI50 (MOLT-4)?
**A.** > 100 µM (inactive)

**Q.** What about the GI50 (MDA-N) of the same compound?
**A.** > 100 µM (inactive)

**Q.** And the GI50 (CAKI-1)?
**A.** > 100 µM (inactive)

**Q.** For `CC1(C)C2CCC1(C)C(OC(=O)/C=C/C(=O)OC1CC3CCC1(C)C3(C)C)C2` (stereo not given), which GI50 (Hs-578T) is on record?
**A.** 63 µM (inactive)

**Q.** And the GI50 (KM12)?
**A.** > 100 µM (inactive)

**Q.** And the GI50 (IGROV-1)?
**A.** > 100 µM (inactive)

**Q.** What about the GI50 (A549) of the same compound?
**A.** > 100 µM (inactive)

**Q.** And the GI50 (UACC-257)?
**A.** 31 µM (inactive)

**Q.** What about the GI50 (SN12C) of the same compound?
**A.** 82.2 µM (inactive)

**Q.** What about the GI50 (SK-MEL-2) of the same compound?
**A.** 61.7 µM (inactive)

**Q.** What about the GI50 (SF-539) of the same compound?
**A.** > 100 µM (inactive)

**Q.** What about the GI50 (PC-3) of the same compound?
**A.** > 100 µM (inactive)

**Q.** What about the GI50 (BT-549) of the same compound?
**A.** 44.7 µM (inactive)

**Q.** And the GI50 (SR)?
**A.** 20.1 µM (inactive)

**Q.** What about the GI50 (HT-29) of the same compound?
**A.** 40 µM (inactive)

**Q.** What about the GI50 (CCRF-CEM) of the same compound?
**A.** 11.4 µM (inactive)

**Q.** And the GI50 (COLO 205)?
**A.** 75.2 µM (inactive)

**Q.** And the GI50 (SK-MEL-28)?
**A.** 18.9 µM (inactive)

**Q.** What about the GI50 (T47D) of the same compound?
**A.** > 100 µM (inactive)

**Q.** And the GI50 (NCI-H460)?
**A.** 67.9 µM (inactive)

**Q.** What about the GI50 (MOLT-4) of the same compound?
**A.** 16.9 µM (inactive)

**Q.** What about the GI50 (MDA-N) of the same compound?
**A.** 60.4 µM (inactive)

**Q.** And the GI50 (CAKI-1)?
**A.** > 100 µM (inactive)

**Q.** What does the source list for `Nc1nc(SCC(=O)c2ccccc2)nc2nc3c(c(-c4ccccc4)c12)CCCC3`?
**A.** GI50 (Hs-578T): 19.1 µM (inactive); GI50 (KM12): 22.4 µM (inactive); GI50 (IGROV-1): > 10 µM (inactive); GI50 (A549): 45.1 µM (inactive); GI50 (UACC-257): 35 µM (inactive); GI50 (SN12C): 38.5 µM (inactive); GI50 (SK-MEL-2): 27.9 µM (inactive); GI50 (SF-539): > 100 µM (inactive); GI50 (PC-3): > 10 µM (inactive); GI50 (BT-549): 40.9 µM (inactive); GI50 (SR): > 100 µM (inactive); GI50 (HT-29): 27.1 µM (inactive); GI50 (CCRF-CEM): 74.8 µM (inactive); GI50 (COLO 205): > 10 µM (inactive); GI50 (SK-MEL-28): 21.9 µM (inactive); GI50 (T47D): 40.3 µM (inactive); GI50 (NCI-H460): 32.9 µM (inactive); GI50 (MOLT-4): > 100 µM (inactive); GI50 (MDA-N): 31.9 µM (inactive); GI50 (CAKI-1): 15.3 µM (inactive)
